Results as given in article PMC12259267, “Disruption of the KLHL37–N-Myc complex restores N-Myc degradation and arrests neuroblastoma growth in mouse models” (The Journal of Clinical Investigation, 2025).
pKd: −log10 of the molar value.

Biological target: T1, KLHL37 (Homo sapiens, UniProt O14682)
T1 construct: gene ENC1; recombinant KLHL37-His (full-length cDNA, pET-28a, E. coli)
T1 sequence (O14682 1-589): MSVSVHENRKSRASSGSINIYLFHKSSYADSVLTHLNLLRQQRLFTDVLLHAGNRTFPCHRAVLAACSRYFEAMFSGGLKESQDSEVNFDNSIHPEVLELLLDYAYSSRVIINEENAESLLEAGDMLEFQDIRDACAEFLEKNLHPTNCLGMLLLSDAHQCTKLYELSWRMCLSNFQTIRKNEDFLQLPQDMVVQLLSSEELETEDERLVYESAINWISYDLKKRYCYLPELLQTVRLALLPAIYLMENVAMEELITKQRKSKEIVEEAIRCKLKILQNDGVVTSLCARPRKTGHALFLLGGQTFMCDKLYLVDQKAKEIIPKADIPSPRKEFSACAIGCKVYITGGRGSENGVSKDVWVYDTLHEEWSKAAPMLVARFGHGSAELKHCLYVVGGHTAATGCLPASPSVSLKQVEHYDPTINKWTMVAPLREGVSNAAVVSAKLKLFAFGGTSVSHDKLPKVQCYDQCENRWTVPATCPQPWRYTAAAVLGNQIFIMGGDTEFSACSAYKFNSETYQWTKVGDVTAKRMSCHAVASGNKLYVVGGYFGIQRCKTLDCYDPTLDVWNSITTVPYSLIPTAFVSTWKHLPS
Experiment: SPR (Biacore X100, KLHL37-His immobilized on CM5 chip)
Type: binding

CC1(C)CC[C@]2(NC(=O)C(C)(F)F)CC[C@]3(C)[C@H](C(=O)C=C4[C@@]5(C)C=C(C#N)C(=O)C(C)(C)[C@@H]5CC[C@]43C)[C@@H]2C1 [RTA-408]
pKd: 4.82
